Assay results: patent US10913727B2, “Modulators of the integrated stress pathway” (Calico Life Sciences LLC, priority 2016, dated 2021)

Tested on: HEK293T cells carrying the ATF4 luciferase reporter
Assay: ATF4-Luc assay, in vitro model of Vanishing Cell White Matter Disease (VWMD)
Type: cell-based
Conditions: Homo sapiens, HEK-293T, 1 μg/mL tunicamycin, 7 hours, One Glo luminescence
In short: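 Compound at 200 nM and tunicamycin at 1 μg/mL were given together for 7 h to HEK293T cells stably transduced with an ATF4 5′-UTR-driven firefly luciferase reporter. Read-out by luminescence, reported as EC50.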

**Q.** O=C(COc1ccc(Cl)c(F)c1)NC12CC(NC(=O)c3c(F)cccc3F)(C1)C2 [Compound 512, N-{3-[2-(4-chloro-3-fluorophenoxy)acetamido]bicyclo[1.1.1]pentan-1-yl}-2,6-difluorobenzamide] was tested. Which EC50 did it give?
**A.** The EC50 was over 2000 nM.

**Q.** Which EC50 does the source give for Cc1cc2c(NC34CC(NC(=O)COc5ccc(F)cc5)(C3)C4)nccn2n1 [Compound 639, 2-(4-fluorophenoxy)-N-{3-[(2-methylpyrazolo[1,5-a]pyrazin-4-yl)amino]bicyclo[1.1.1]pentan-1-yl}acetamide] here?
**A.** The EC50 was 50 to 250 nM.

**Q.** Which EC50 does the source give for O=C(COc1ccc2c(c1)OC(F)(F)O2)NC12CC(NC(=O)c3cnc(C4CC4)o3)(C1)C2 [Compound 717, 2-cyclopropyl-N-(3-{2-[(2,2-difluoro-2H-1,3-benzodioxol-5-yl)oxy]acetamido}bicyclo[1.1.1]pentan-1-yl)-1,3-oxazole-5-carboxamide] here?
**A.** The EC50 was 250 to 1000 nM.

**Q.** For Cc1cc(C(=O)NC23CCC(NC(=O)COc4ccc(Cl)c(F)c4)(CC2)C(O)C3)on1 (stereo not drawn) [Compound 326, N-{4-[2-(4-chloro-3-fluorophenoxy)acetamido]-3-hydroxybicyclo[2.2.2]octan-1-yl}-3-methyl-1,2-oxazole-5-carboxamide], which EC50 is on record?
**A.** Its EC50 is 50 to 250 nM.

**Q.** Which EC50 does the source give for Cc1cccc(C(=O)NC23CC(NC(=O)COc4ccc(Cl)c(F)c4)(C2)C3)c1 [Compound 535, N-{3-[2-(4-chloro-3-fluorophenoxy)acetamido]bicyclo[1.1.1]pentan-1-yl}-3-methylbenzamide] here?
**A.** The EC50 was 50 to 250 nM.

**Q.** O=C(COc1ccc(Cl)c(F)c1)NC12CC(NC(=O)c3cc4ccccn4n3)(C1)C2 [Compound 119, N-{3-[2-(4-chloro-3-fluorophenoxy)acetamido]bicyclo[1.1.1]pentan-1-yl}pyrazolo[1,5-a]pyridine-2-carboxamide] was tested. Which EC50 did it give?
**A.** Its EC50 is 250 to 1000 nM.

**Q.** O=C(COc1ccc(Cl)c(F)c1)NC12CC(NC(=O)c3cnc(C(F)F)cn3)(C1)C2 [Compound 134, N-{3-[2-(4-chloro-3-fluorophenoxy)acetamido]bicyclo[1.1.1]pentan-1-yl}-5-(difluoromethyl)pyrazine-2-carboxamide] was tested. Which EC50 did it give?
**A.** Its EC50 is under 50 nM.

**Q.** For COc1ccc(C(=O)NC23CC(NC(=O)COc4ccc(Cl)c(F)c4)(C2)C3)cc1F [Compound 530, N-{3-[2-(4-chloro-3-fluorophenoxy)acetamido]bicyclo[1.1.1]pentan-1-yl}-3-fluoro-4-methoxybenzamide], which EC50 is on record?
**A.** The EC50 was 250 to 1000 nM.

**Q.** For Cc1cnccc1C(=O)NC12CC(NC(=O)COc3ccc(Cl)c(F)c3)(C1)C2 [Compound 814, N-{3-[2-(4-chloro-3-fluorophenoxy)acetamido]bicyclo[1.1.1]pentan-1-yl}-3-methylpyridine-4-carboxamide], which EC50 is on record?
**A.** Its EC50 is over 2000 nM.

**Q.** For O=C(COc1ccc(Cl)c(Cl)c1)NC12CC(NC(=O)c3ccc(OCCO)nc3)(C1)C2 [Compound 158, N-{3-[2-(3,4-dichlorophenoxy)acetamido]bicyclo[1.1.1]pentan-1-yl}-6-(2-hydroxyethoxy)pyridine-3-carboxamide], which EC50 is on record?
**A.** The EC50 was 250 to 1000 nM.

**Q.** With CCc1nc(C(=O)NC23CC(NC(=O)COc4ccc5c(c4)OC(F)(F)O5)(C2)C3)cs1 [Compound 699, N-(3-{2-[(2,2-difluoro-2H-1,3-benzodioxol-5-yl)oxy]acetamido}bicyclo[1.1.1]pentan-1-yl)-2-ethyl-1,3-thiazole-4-carboxamide] as the compound, how does the EC50 read?
**A.** The EC50 was 250 to 1000 nM.

**Q.** Which EC50 does the source give for O=C(COc1ccc(Cl)c(F)c1)NC12CCC(NC(=O)c3ccn[nH]3)(CC1)C(O)C2 (stereo not drawn) [Compound 224, N-{4-[2-(4-chloro-3-fluorophenoxy)acetamido]-2-hydroxybicyclo[2.2.2]octan-1-yl}-1H-pyrazole-5-carboxamide] here?
**A.** Its EC50 is 250 to 1000 nM.

**Q.** With O=C(COc1ccc(Cl)c(F)c1)NC12CC(NC(=O)c3ccc(/C=C/C4CC4)cn3)(C1)C2 [Compound 283, N-{3-[2-(4-chloro-3-fluorophenoxy)acetamido]bicyclo[1.1.1]pentan-1-yl}-5-[(E)-2-cyclopropylethenyl]pyridine-2-carboxamide] as the compound, how does the EC50 read?
**A.** The EC50 was under 50 nM.

**Q.** Which EC50 does the source give for O=C(COc1ccc(Cl)c(F)c1)NC12CC(NC(=O)c3cnc(C(F)(F)F)s3)(C1)C2 [Compound 563, N-{3-[2-(4-chloro-3-fluorophenoxy)acetamido]bicyclo[1.1.1]pentan-1-yl}-2-(trifluoromethyl)-1,3-thiazole-5-carboxamide] here?
**A.** The EC50 was under 50 nM.

**Q.** Which EC50 does the source give for O=C(COc1ccc(Cl)c(F)c1)NC12CC(Nc3nccc(-c4ccccc4)n3)(C1)C2 [Compound 363, 2-(4-chloro-3-fluorophenoxy)-N-{3-[(4-phenylpyrimidin-2-yl)amino]bicyclo[1.1.1]pentan-1-yl}acetamide] here?
**A.** The EC50 was 1000 to 2000 nM.

**Q.** How did the EC50 turn out when O=C(COc1ccc(Cl)c(F)c1)NC12CCC(NC(=O)c3ccc(C(F)(F)F)nc3)(CC1)C(F)C2 (stereo not drawn) [Compound 372, N-{4-[2-(4-chloro-3-fluorophenoxy)acetamido]-2-fluorobicyclo[2.2.2]octan-1-yl}-6-(trifluoromethyl)pyridine-3-carboxamide] was run?
**A.** The EC50 was 250 to 1000 nM.

**Q.** Cn1cc(C(=O)NC23CC(NC(=O)COc4ccc(Cl)c(F)c4)(C2)C3)c(C(F)(F)F)n1 [Compound 868, N-{3-[2-(4-chloro-3-fluorophenoxy)acetamido]bicyclo[1.1.1]pentan-1-yl}-1-methyl-3-(trifluoromethyl)-1H-pyrazole-4-carboxamide] was tested. Which EC50 did it give?
**A.** The EC50 was over 2000 nM.

**Q.** How did the EC50 turn out when O=C(COc1ccc(Cl)c(F)c1)NC12CC(NC(=O)c3cc4ccccn4c3)(C1)C2 [Compound 689, N-{3-[2-(4-chloro-3-fluorophenoxy)acetamido]bicyclo[1.1.1]pentan-1-yl}indolizine-2-carboxamide] was run?
**A.** The EC50 was 50 to 250 nM.

**Q.** Cc1c(C(=O)NC23CC(NC(=O)COc4ccc(Cl)c(F)c4)(C2)C3)cnn1C [Compound 882, N-{3-[2-(4-chloro-3-fluorophenoxy)acetamido]bicyclo[1.1.1]pentan-1-yl}-1,5-dimethyl-1H-pyrazole-4-carboxamide] was tested. Which EC50 did it give?
**A.** Its EC50 is over 2000 nM.

**Q.** CCc1ocnc1C(=O)NC12CC(NC(=O)COc3ccc(Cl)c(F)c3)(C1)C2 [Compound 859, N-{3-[2-(4-chloro-3-fluorophenoxy)acetamido]bicyclo[1.1.1]pentan-1-yl}-5-ethyl-1,3-oxazole-4-carboxamide] was tested. Which EC50 did it give?
**A.** The EC50 was over 2000 nM.

**Q.** For O=C(COc1ccc(Cl)c(F)c1)NC12CC(NC(=O)c3ccc(F)cc3F)(C1)C2 [Compound 511, N-{3-[2-(4-chloro-3-fluorophenoxy)acetamido]bicyclo[1.1.1]pentan-1-yl}-2,4-difluorobenzamide], which EC50 is on record?
**A.** The EC50 was 250 to 1000 nM.

**Q.** With O=C(COc1ccc(Cl)c(F)c1)NC12CCC(NC(=O)c3ccc4cc(F)ccc4n3)(CC1)[C@@H](O)C2 [Compound 930, N-{(2S)-4-[2-(4-chloro-3-fluorophenoxy)acetamido]-2-hydroxybicyclo[2.2.2]octan-1-yl}-6-fluoroquinoline-2-carboxamide] as the compound, how does the EC50 read?
**A.** The EC50 was under 50 nM.

**Q.** With CCc1cc(C(=O)NC23CCC(NC(=O)COc4ccc(Cl)c(F)c4)(CC2)[C@@H](O)C3)on1 [Compound 618, N-{(3S)-4-[2-(4-chloro-3-fluorophenoxy)acetamido]-3-hydroxybicyclo[2.2.2]octan-1-yl}-3-ethyl-1,2-oxazole-5-carboxamide] as the compound, how does the EC50 read?
**A.** Its EC50 is under 50 nM.

**Q.** For O=C(CCCc1cccc(Cl)c1)NC12CC(NC(=O)c3cnc(C(F)F)cn3)(C1)C2 [Compound 946, N-{3-[4-(3-chlorophenyl)butanamido]bicyclo[1.1.1]pentan-1-yl}-5-(difluoromethyl)pyrazine-2-carboxamide], which EC50 is on record?
**A.** The EC50 was over 2000 nM.

**Q.** Cc1nc(C(=O)NC23CCC(NC(=O)COc4ccc(Cl)c(F)c4)(CC2)C(O)C3)ccc1C#N (stereo not drawn) [Compound 916, N-{4-[2-(4-chloro-3-fluorophenoxy)acetamido]-3-hydroxybicyclo[2.2.2]octan-1-yl}-5-cyano-6-methylpyridine-2-carboxamide] was tested. Which EC50 did it give?
**A.** Its EC50 is 50 to 250 nM.

**Q.** With O=C(COc1ccc(F)c(F)c1)NC12CC(Nc3cnc(-c4cccnc4)cn3)(C1)C2 [Compound 731, 2-(3,4-difluorophenoxy)-N-(3-{[5-(pyridin-3-yl)pyrazin-2-yl]amino}bicyclo[1.1.1]pentan-1-yl)acetamide] as the compound, how does the EC50 read?
**A.** Its EC50 is 1000 to 2000 nM.

**Q.** How did the EC50 turn out when O=C(COc1ccc(Cl)c(F)c1)NC12CCC(NC(=O)c3ccsc3)(CC1)CC2O (stereo not drawn) [Compound 591, N-{4-[2-(4-chloro-3-fluorophenoxy)acetamido]-3-hydroxybicyclo[2.2.2]octan-1-yl}thiophene-3-carboxamide] was run?
**A.** Its EC50 is 50 to 250 nM.

**Q.** For Cn1nc(C2CC2)cc1C(=O)NC12CC(NC(=O)COc3ccc(Cl)c(F)c3)(C1)C2 [Compound 329, N-{3-[2-(4-chloro-3-fluorophenoxy)acetamido]bicyclo[1.1.1]pentan-1-yl}-3-cyclopropyl-1-methyl-1H-pyrazole-5-carboxamide], which EC50 is on record?
**A.** The EC50 was 50 to 250 nM.

**Q.** Cn1ncc2cc(C(=O)NC34CC(NC(=O)COc5ccc(Cl)c(F)c5)(C3)C4)cnc21 [Compound 620, N-{3-[2-(4-chloro-3-fluorophenoxy)acetamido]bicyclo[1.1.1]pentan-1-yl}-1-methyl-1H-pyrazolo[3,4-b]pyridine-5-carboxamide] was tested. Which EC50 did it give?
**A.** Its EC50 is 1000 to 2000 nM.

**Q.** For O=C(COc1ccc(Cl)c(F)c1)NC12CC(Nc3ccc(C(F)(F)F)nc3)(C1)C2 [Compound 104, 2-(4-chloro-3-fluorophenoxy)-N-(3-{[6-(trifluoromethyl)pyridin-3-yl]amino}bicyclo[1.1.1]pentan-1-yl)acetamide], which EC50 is on record?
**A.** The EC50 was 250 to 1000 nM.

**Q.** Which EC50 does the source give for O=C(COc1ccc(Cl)c(F)c1)NC12CC(NC(=O)c3ccnc(C(=O)O)c3)(C1)C2 [Compound 280, 4-({3-[2-(4-chloro-3-fluorophenoxy)acetamido]bicyclo[1.1.1]pentan-1-yl}carbamoyl)pyridine-2-carboxylic acid] here?
**A.** Its EC50 is over 2000 nM.

**Q.** For O=C(COc1ccc2c(c1)OC(F)(F)O2)NC12CC(NC(=O)c3cccnc3)(C1)C2 [Compound 457, N-(3-{2-[(2,2-difluoro-2H-1,3-benzodioxol-5-yl)oxy]acetamido}bicyclo[1.1.1]pentan-1-yl)pyridine-3-carboxamide], which EC50 is on record?
**A.** The EC50 was 250 to 1000 nM.

**Q.** Cc1cc(C(=O)NC23CC(NC(=O)COc4ccc(Cl)c(Cl)c4)(C2)C3)on1 [Compound 431, N-{3-[2-(3,4-dichlorophenoxy)acetamido]bicyclo[1.1.1]pentan-1-yl}-3-methyl-1,2-oxazole-5-carboxamide] was tested. Which EC50 did it give?
**A.** The EC50 was 50 to 250 nM.
